Source: ChEMBL document CHEMBL5042489, “Inhibitors of the Hippo Pathway Kinases STK3/MST2 and STK4/MST1 Have Utility for the Treatment of Acute Myeloid Leukemia” (J Med Chem, 2022)
Active and inactive are the calls of the source. No cut-off for these calls is given here.

Legend:
[1] = Permeability in human Caco-2 cells; format: ADME, cell-based
[2] = target: BMP-2-inducible protein kinase (Homo sapiens) (UniProt Q9NSY1); assay: Inhibition of BMP2K (unknown origin) by NanoBRET intracellular kinase assay; format: cell-based; settings: time 2.0 hrs
BMP-2-inducible protein kinase (Homo sapiens), sequence (Q9NSY1 whole entry, looked up): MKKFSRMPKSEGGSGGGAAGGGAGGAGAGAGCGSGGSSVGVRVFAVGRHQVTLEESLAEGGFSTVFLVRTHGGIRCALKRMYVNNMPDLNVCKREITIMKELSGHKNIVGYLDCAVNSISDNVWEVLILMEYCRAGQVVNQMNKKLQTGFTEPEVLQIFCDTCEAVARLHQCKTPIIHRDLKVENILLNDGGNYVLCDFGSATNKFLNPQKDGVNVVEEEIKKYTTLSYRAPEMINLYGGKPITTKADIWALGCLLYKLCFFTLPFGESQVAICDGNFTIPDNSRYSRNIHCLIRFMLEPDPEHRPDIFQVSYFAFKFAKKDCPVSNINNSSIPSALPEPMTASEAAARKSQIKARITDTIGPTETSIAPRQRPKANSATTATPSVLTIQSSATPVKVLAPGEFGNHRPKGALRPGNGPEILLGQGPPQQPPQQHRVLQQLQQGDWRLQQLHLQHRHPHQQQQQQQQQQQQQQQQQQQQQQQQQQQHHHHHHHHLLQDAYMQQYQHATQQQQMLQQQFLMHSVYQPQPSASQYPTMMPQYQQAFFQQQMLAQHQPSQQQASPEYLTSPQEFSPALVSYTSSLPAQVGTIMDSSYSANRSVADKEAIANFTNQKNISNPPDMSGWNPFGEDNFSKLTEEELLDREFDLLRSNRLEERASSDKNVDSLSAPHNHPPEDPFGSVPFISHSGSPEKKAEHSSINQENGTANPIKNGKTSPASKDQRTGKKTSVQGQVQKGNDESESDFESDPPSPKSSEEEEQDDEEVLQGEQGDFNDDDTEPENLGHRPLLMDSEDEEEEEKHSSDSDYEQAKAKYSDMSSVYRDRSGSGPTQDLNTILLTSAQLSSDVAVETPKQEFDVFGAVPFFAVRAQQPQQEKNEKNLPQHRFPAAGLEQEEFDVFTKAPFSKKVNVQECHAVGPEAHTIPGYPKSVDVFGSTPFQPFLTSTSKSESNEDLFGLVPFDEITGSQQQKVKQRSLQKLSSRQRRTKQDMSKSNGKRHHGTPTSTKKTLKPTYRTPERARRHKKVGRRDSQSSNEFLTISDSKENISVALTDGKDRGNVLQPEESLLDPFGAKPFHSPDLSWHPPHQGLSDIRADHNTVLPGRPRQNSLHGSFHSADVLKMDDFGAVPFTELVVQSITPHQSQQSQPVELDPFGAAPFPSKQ

Mus musculus = assay: In vivo inhibition of STK3/4 in C57BL/6 mouse assessed as decrease in Thr35phosphorylated-MOB1 protein level in liver at 10 mg/kg, ip administered for 1 hr by Western blotting analysis; format: functional, organism-based
OCI-AML-3 = assay: Antiproliferation activity against human OCI-AML-3 cells incubated for 72 hrs by celltiter-glo assay; format: functional, cell-based
[3] = target: T1, Serine/threonine-protein kinase 3 (Homo sapiens, UniProt Q13188)
T1 sequence (Q13188 whole entry): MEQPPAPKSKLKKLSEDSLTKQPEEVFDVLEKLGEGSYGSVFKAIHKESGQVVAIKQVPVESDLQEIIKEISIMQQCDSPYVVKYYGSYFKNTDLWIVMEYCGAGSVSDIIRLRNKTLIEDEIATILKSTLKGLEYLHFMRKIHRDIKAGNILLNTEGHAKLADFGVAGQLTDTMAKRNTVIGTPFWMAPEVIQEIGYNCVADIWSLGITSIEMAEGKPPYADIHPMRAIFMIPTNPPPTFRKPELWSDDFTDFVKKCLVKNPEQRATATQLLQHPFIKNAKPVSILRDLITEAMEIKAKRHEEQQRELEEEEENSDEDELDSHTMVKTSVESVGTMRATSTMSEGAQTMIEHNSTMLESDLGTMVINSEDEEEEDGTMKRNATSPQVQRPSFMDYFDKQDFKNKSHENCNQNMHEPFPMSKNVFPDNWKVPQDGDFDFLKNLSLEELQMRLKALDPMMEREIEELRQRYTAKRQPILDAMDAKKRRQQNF

[4] = target: T2, Serine/threonine-protein kinase STK11 (Homo sapiens) (UniProt Q15831); assay: Inhibition of LKB1 (unknown origin) by NanoBRET intracellular kinase assay; format: cell-based; settings: time 2.0 hrs
T2 sequence (whole entry): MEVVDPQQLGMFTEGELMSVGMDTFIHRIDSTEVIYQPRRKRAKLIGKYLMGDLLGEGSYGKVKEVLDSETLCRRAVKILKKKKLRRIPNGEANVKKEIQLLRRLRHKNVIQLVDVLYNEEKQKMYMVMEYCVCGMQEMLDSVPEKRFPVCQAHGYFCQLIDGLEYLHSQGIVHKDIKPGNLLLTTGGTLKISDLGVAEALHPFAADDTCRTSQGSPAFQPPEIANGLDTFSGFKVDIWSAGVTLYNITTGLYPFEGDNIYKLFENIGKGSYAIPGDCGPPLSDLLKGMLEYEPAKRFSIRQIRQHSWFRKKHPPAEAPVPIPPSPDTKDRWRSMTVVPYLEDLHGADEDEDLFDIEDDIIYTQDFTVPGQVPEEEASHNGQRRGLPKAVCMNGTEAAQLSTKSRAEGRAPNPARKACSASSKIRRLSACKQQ

SKNO-1 = assay: Antiproliferation activity against human SKNO-1 cells incubated for 72 hrs by celltiter-glo assay; format: functional, cell-based
Kasumi 1 = assay: Antiproliferation activity against human Kasumi 1 cells incubated for 72 hrs by celltiter-glo assay; format: functional, cell-based
[5] = target: Leucine-rich repeat serine/threonine-protein kinase 2 (Homo sapiens, UniProt Q5S007); assay: Displacement of K5 tracer from full length C-terminal NanoLuc fused human LRRK2 expressed in HEK293T cells incubated for 2 hrs by NanoBRET assay; format: cell-based
Leucine-rich repeat serine/threonine-protein kinase 2, sequence (Q5S007 whole entry, the tested form may be a part): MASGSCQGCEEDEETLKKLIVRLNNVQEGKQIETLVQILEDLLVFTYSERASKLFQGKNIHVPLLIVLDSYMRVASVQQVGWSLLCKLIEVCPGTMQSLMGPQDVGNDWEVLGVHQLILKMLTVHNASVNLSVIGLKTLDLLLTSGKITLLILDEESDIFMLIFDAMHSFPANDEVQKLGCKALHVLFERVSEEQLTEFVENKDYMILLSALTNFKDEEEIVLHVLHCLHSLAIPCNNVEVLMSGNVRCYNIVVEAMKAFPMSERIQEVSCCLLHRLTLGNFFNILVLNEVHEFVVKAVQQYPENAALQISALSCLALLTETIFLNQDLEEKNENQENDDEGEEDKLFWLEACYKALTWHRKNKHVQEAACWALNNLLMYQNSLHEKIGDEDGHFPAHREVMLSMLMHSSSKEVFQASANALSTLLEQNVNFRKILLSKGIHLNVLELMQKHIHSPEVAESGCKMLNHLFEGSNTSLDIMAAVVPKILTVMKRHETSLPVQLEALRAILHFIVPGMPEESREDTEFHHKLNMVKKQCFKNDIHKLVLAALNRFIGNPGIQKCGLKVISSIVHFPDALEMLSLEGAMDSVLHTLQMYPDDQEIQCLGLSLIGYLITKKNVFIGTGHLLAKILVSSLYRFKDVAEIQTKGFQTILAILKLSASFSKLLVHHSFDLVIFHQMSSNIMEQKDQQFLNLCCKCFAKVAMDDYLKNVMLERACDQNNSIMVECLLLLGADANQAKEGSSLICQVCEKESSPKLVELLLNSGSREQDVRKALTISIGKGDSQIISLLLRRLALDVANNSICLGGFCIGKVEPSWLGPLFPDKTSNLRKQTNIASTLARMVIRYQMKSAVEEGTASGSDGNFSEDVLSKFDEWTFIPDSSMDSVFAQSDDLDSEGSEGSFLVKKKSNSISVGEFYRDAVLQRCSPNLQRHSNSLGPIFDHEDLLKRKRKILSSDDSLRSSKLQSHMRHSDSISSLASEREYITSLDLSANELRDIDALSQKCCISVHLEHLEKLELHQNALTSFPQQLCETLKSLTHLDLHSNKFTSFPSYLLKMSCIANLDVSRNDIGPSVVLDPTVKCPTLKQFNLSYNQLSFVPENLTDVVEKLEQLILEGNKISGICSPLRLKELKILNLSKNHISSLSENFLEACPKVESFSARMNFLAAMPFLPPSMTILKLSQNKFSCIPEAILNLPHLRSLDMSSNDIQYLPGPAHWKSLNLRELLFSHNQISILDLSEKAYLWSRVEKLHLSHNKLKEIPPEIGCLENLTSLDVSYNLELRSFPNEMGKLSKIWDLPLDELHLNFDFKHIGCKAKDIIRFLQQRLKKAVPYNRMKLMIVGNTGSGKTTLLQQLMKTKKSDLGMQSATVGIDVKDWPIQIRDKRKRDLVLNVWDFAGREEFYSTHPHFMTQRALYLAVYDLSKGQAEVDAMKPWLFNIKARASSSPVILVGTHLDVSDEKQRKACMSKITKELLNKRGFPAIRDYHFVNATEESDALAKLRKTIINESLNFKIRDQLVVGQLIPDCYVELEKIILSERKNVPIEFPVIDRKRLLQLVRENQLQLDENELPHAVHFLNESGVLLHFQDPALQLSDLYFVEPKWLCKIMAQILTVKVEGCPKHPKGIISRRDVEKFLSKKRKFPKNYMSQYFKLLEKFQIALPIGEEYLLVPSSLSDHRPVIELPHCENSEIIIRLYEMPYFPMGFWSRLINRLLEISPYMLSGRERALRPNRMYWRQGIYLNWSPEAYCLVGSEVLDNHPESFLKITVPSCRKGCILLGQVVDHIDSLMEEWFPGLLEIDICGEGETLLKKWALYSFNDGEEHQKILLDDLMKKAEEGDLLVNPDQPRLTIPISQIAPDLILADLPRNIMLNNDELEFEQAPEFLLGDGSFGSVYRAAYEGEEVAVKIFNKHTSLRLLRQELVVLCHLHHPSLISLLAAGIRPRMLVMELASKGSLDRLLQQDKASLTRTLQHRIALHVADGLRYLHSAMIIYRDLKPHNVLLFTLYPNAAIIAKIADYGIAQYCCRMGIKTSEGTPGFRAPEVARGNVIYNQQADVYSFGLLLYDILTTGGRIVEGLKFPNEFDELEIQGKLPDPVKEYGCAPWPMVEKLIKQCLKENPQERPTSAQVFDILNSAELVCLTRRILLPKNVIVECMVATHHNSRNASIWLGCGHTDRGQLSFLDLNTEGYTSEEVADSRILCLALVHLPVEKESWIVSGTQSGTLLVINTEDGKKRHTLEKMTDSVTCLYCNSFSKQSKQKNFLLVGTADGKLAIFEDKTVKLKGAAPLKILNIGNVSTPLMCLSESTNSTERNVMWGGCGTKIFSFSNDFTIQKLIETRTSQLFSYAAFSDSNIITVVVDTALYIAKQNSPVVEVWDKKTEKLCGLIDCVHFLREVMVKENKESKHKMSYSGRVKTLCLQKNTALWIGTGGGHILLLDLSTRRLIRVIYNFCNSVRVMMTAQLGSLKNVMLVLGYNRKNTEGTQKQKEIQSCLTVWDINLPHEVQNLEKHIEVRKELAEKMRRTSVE

[6] = Cmax in C57BL/6 mouse at 10 mg/kg, ip measured upto 24 hrs by LC-MS/MS analysis; format: ADME, organism-based; parameters: route intraperitoneal, dose 10 mg/kg, time <=24; settings: in vivo
[7] = target: T3, Serine/threonine-protein kinase 3 (Homo sapiens) (UniProt Q13188); assay: Inhibition of STK3 in HEK293 cells assessed as increase in YAP/TAZ-TEAD activity at 10 uM incubated for 48 hrs by Dual-Glo luciferase assay; format: cell-based
T3 sequence (whole entry): T1 sequence (Q13188 whole entry)

[8] = Kinetic solubility of compound in PBS at pH 7.4; format: physicochemical; settings: buffer
MOLM-13 [9] = assay: Inhibition of MOB1 phosphorylation in human MOLM-13 cells assessed as decrease in pMOB1 activity at 1 uM preincubated for 4 hrs followed by H2O2 addition for 2 hrs by Western blotting analysis; format: cell-based; settings: time 6.0 hrs
MOLM-13 [10] = assay: Antiproliferation activity against human MOLM-13 cells incubated for 72 hrs by celltiter-glo assay; format: functional, cell-based
[11] = Drug concentration in C57BL/6 mouse plasma at 20 mg/kg, ip measured after 30 mins by LC-MS/MS analysis; format: ADME, organism-based
[12] = target: T3, Serine/threonine-protein kinase 3 (Homo sapiens); assay: Inhibition of STK3 (unknown origin) by KdELECT assay
[13] = target: T4, Serine/threonine-protein kinase 4 (Homo sapiens, UniProt Q13043)
T4 sequence (Q13043 whole entry): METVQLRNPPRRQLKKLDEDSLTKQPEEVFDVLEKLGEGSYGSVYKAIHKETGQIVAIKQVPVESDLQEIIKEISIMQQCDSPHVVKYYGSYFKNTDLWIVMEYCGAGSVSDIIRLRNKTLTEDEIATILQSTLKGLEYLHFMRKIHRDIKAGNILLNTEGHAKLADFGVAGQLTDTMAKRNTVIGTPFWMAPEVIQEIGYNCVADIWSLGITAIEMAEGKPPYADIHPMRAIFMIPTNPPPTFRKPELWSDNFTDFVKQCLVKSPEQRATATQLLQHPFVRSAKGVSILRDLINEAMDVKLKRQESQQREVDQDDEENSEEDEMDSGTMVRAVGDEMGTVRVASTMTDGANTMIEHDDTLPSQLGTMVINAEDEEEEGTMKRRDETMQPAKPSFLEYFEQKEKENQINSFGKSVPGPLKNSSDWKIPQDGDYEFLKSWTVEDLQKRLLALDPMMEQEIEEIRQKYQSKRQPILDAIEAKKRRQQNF
Description: Displacement of K5 tracer from full length C-terminal NanoLuc fused human STK4 expressed in HEK293T cells incubated for 2 hrs by NanoBRET assay

[14] = target: T5, Serine/threonine-protein kinase RIO3 (Homo sapiens) (UniProt O14730); assay: Inhibition of wild type full length human RIOK3 (M1 to E519 residues) expressed in bacterial expression system by KdELECT assay
T5 sequence (whole entry): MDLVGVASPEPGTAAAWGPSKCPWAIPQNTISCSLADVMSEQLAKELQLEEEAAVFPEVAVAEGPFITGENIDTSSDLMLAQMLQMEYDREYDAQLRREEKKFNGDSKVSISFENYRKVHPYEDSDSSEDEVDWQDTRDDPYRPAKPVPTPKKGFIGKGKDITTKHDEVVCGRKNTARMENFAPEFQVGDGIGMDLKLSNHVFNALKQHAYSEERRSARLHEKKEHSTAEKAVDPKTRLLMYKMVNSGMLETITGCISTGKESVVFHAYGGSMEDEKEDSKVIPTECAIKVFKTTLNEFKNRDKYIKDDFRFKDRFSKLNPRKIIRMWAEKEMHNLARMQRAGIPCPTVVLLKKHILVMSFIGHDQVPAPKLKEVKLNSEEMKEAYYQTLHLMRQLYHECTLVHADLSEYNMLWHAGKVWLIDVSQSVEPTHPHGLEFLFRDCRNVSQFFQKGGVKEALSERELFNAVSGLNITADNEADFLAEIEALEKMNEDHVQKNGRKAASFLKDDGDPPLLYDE

THP-1 = assay: Antiproliferation activity against human THP-1 cells incubated for 72 hrs by celltiter-glo assay; format: functional, cell-based
[15] = Tmax in C57BL/6 mouse at 10 mg/kg, ip measured upto 24 hrs by LC-MS/MS analysis; format: ADME, organism-based; settings: in vivo
[16] = Half life in C57BL/6 mouse at 10 mg/kg, ip measured upto 24 hrs by LC-MS/MS analysis; format: ADME, organism-based; settings: in vivo
[17] = target: T3, Serine/threonine-protein kinase 3 (Homo sapiens); assay: Inhibition of recombinant N-terminal His6-tagged human STK3 (18 to 311 residues) expressed in Escherichia coli assessed as melting temperature at 20 uM by thermal shift assay
[18] = target: Protein kinase C theta type (Homo sapiens) (UniProt Q04759); assay: Inhibition of wild type partial length human PRKCQ (L350 to S706 residues) expressed in bacterial expression system by KdELECT assay
Protein kinase C theta type (Homo sapiens), sequence (Q04759 whole entry, looked up, the tested form may be a part): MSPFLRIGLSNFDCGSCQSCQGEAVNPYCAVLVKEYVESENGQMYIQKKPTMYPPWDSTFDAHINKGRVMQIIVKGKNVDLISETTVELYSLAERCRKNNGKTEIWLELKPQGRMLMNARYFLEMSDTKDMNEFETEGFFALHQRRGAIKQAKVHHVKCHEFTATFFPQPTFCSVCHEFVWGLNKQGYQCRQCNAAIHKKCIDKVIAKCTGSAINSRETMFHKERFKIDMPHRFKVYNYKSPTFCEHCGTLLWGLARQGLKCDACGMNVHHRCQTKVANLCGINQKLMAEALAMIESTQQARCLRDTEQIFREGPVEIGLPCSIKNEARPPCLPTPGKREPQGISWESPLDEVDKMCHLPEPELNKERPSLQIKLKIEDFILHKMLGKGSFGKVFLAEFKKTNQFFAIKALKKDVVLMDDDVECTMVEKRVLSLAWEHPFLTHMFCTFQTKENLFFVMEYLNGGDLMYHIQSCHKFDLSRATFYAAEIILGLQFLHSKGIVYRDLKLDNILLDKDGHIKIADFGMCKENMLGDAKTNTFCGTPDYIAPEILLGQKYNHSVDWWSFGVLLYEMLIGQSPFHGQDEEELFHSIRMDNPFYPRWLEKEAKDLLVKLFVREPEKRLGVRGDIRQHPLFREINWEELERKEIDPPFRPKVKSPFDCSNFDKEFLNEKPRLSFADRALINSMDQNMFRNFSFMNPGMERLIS

MV4-11 = assay: Antiproliferation activity against human MV4-11 cells incubated for 72 hrs by celltiter-glo assay; format: functional, cell-based
[19] = target: T4, Serine/threonine-protein kinase 4; remark: listed apart in the source
[20] = target: T1, Serine/threonine-protein kinase 3; remark: listed apart in the source
Description: Displacement of K5 tracer from full length C-terminal NanoLuc fused human STK3 expressed in HEK293T cells incubated for 2 hrs by NanoBRET assay

[21] = AUC (0 to t) in C57BL/6 mouse at 10 mg/kg, ip measured upto 24 hrs by LC-MS/MS analysis; format: ADME, organism-based; parameters: dose 10 mg/kg, time <=24; settings: in vivo
[22] = Drug concentration in C57BL/6 mouse liver at 10 mg/kg, ip administered for 3 hrs; format: ADME, organism-based; settings: read-out: Ct
[23] = Drug concentration in C57BL/6 mouse liver at 10 mg/kg, ip administered for 1 hr; format: ADME, organism-based; settings: read-out: Ct
[24] = target: T6, Serine/threonine-protein kinase 4 (Homo sapiens) (UniProt Q13043); settings: dose 20.0 µM
T6 sequence (whole entry): T4 sequence (Q13043 whole entry)
Description: Inhibition of recombinant N-terminal His6-tagged human STK4 (43 to 431 residues) expressed in Escherichia coli assessed as melting temperature at 20 uM by thermal shift assay (Rvb = 55 degreeC)

[25] = Drug concentration in C57BL/6 mouse liver at 10 mg/kg, ip administered for 2 hrs; format: ADME, organism-based; settings: read-out: Ct
[26] = Inhibition of MOB1 phosphorylation in human MOLM-13 cells assessed as decrease in pMOB1 activity preincubated for 4 hrs followed by H2O2 addition for 2 hrs by Western blotting analysis; format: cell-based

SMILES	inhibition [2]	inhibition (Mus musculus)	Activity (OCI-AML-3)	IC50 [3] [nM]	inhibition [4]	Activity (SKNO-1)	Activity (Kasumi 1)	IC50 [5] [nM]	Cmax [6] [µM]	inhibition [7]	concentration at 0.5 h [11] [µM]	inhibition [12]	IC50 [13] [nM]	inhibition [14]	Activity (THP-1)	Tmax [15] [min]	t1/2 [16] [h]	inhibition [18]	IC50 [20] [nM]	AUCt [21] [µmol·h/L]	also measured
OC1CCN(c2ncnc3[nH]cc(-c4cccc(Cl)c4)c23)CC1	inactive	Active	Dose-Dependent Effect	127	inactive	Dose-Dependent Effect	Dose-Dependent Effect	1340	5.8	Active	11.6	Active	250	Active	Dose-Dependent Effect	15	9.9	Active	433	4.3	permeability [1]: Permeable; Kinetic_solubility [8]: 189 µM; inhibition (MOLM-13 [9]): Active; Activity (MOLM-13 [10]): Dose-Dependent Effect; ΔTm [17]: > 5.2 °C; Activity (MV4-11): Dose-Dependent Effect; IC50 [19]: 80 nM
NC(=O)c1cccc(-c2c[nH]c3ncnc(N4CCOCC4)c23)c1	–	Active	–	233	–	–	–	2360	11.9	Active	15.9	–	–	–	–	30	0.7	–	303	9.5	concentration at 3 h [22]: 1200 nM; concentration at 1 h [23]: 28 µM; Tm [24]: 63.3 °C; concentration at 2 h [25]: 2500 nM
CC(=O)NC1CCN(c2ncnc3[nH]cc(-c4cccc(Cl)c4)c23)CC1	inactive	Active	Dose-Dependent Effect	36	inactive	Dose-Dependent Effect	Dose-Dependent Effect	1390	11.8	–	–	Active	122	Active	Dose-Dependent Effect	15	5.3	Active	139	8.1	IC50 (MOLM-13 [10]; MOLM-13, 72 h): 5.8 µM; IC50 [26]: 413 nM; IC50 (MV4-11; MV4-11, 72 h): 3.7 µM; IC50 [19]: 26 nM
